The results in this text go back to publication PMC6934184, “Selective DNA-PKcs inhibition extends the therapeutic index of localized radiotherapy and chemotherapy” (The Journal of Clinical Investigation, 2019).

This experiment addresses T1, PDGFRA D842V (Homo sapiens, UniProt P16234, D842V).
T1 construct: purchased Thermo Fisher Scientific (Life Technologies) SelectScreen
Nature of the experiment: SelectScreen Z'LYTE. Format: biochemical. In outline:
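Percent values come from Thermo SelectScreen profiling of NU5455, combining activity and binding assays. CSF1R was run in Z'LYTE format at Km app ATP, and CAMK1 in Adapta format with ATP listed at 10.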

T1 sequence (P16234 24-1089 D842V): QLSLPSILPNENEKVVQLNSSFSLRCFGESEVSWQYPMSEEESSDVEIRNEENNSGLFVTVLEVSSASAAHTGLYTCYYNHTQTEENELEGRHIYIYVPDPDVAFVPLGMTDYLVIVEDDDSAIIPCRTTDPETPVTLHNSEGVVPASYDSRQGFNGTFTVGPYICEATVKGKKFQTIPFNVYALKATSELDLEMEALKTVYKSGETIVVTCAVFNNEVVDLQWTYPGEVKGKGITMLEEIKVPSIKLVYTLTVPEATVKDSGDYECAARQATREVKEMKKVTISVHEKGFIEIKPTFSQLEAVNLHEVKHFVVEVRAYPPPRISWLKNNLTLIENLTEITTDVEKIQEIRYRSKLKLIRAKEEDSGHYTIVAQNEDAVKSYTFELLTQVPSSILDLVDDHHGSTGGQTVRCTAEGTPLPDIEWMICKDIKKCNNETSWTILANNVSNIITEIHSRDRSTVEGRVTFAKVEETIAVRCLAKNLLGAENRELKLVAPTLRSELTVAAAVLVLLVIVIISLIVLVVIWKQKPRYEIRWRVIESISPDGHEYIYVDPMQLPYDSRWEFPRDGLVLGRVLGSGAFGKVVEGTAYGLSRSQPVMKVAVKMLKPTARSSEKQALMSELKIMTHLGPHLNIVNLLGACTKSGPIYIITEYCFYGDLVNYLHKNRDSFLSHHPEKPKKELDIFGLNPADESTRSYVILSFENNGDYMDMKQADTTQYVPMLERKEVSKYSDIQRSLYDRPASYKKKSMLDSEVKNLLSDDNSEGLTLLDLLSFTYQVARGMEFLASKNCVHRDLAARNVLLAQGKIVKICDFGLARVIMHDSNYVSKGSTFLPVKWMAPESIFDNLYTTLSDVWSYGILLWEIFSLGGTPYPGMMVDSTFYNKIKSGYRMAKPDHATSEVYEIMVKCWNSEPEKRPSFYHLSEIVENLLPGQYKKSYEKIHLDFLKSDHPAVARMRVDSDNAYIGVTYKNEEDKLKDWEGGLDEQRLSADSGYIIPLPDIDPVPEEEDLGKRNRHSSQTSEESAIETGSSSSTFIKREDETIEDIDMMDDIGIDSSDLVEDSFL

The inhibition is the drop in the measured response relative to a control, in per cent. With `CN(C(=O)CN1CCOCC1)c1ccc2sc3c(-c4cccc5c(=O)cc(N6CC7CCC(C6)O7)oc45)cccc3c2c1` [NU5455], the inhibition at 1 µM was -5%.
